# Laboratory results taken from US20200171165A1, “ENHANCED TARGETED DELIVERY OF THERAPEUTIC AGENTS” (Proteogenomics Research Institute for Systems Medicine, priority 2018, published 2020).
# Tests used:
# [1] = system: HER2/neu spontaneous mammary tumors; assay: HER2/neu transgenic spontaneous mammary tumor model: survival and toxicity; type: in vivo, mouse; conditions: single IV dose 5 mg/kg
# Description: We also performed a pilot efficacy study of hAnnA1-CMD-Pt(II) in a genetically engineered mouse HER2/neu model that develops spontaneous mammary tumors (GuyWebster et al., 1992; Reilly et al., 2000).
# [2] = system: mammary tumors (N202); assay: IVM ectopic-orthotopic (EO) mammary tumor model, spheroids in dorsal skin window chambers: tumor growth
# Description: We used the classic IVM tumor model with modifications (Asaishi et al., 1981; Endrich et al., 1980; Vajkoczy et al., 2000). The mice, usually athymic nude mice (25-30 g body weight), were anesthetized (7.3 mg ketamine hydrochloride and 2.3 mg xylazine per 100 g body weight, intraperitoneal injection) and placed on a heating pad. A titanium frame was placed onto the dorsal skinfold of mice to sandwich the extended double layer of skin. A 15 mm diameter full-thickness circular layer of skin was then excised. The superficial fascia on top of the remaining skin was carefully removed to expose the underlying muscle and subcutaneous tissue which was then covered with another titanium frame with a glass coverslip to form the window chamber. After a recovery period of 1-2 days, tumor spheroids were implanted.
# Tumor spheroids were formed by plating 50,000 cells onto 1% agar-coated 96-well non-tissue culture treated flat bottom dishes (20 μl cells in 100 μl medium) and centrifuging 4 times at 2000 rpm for 15 min, rotating the dish after every centrifugation. The cells were incubated an additional 3-7 days (depending on cell type) at 37° C. in 5% CO2 in air to form tight spheroids. BT-474 cells required 500,000 cells in the presence of Matrigel (BD Bioscience, San Diego) (1:1 cell volume dilution) to form spheroids in culture. […]
# Tumors were imaged using intravital fluorescence microscopy, as described (Borgstrom et al., 2013; Oh et al., 2007; Oh et al., 2014). Tumor growth was analyzed off-line from the recorded, digital, grayscale 0-to-256 images using Image-Pro Plus (Media Cybernetics, Bethesda, Md.). Tumor growth was determined in 2 ways, by measuring the area with fluorescence signal from the GFP or CFP expressing tumor cells or by quantifying the cumulative fluorescence signal for the tumor over time. Tumor area is measured by counting the number of pixels with a grayscale intensity above 75, thereby making it easier to reliably follow irregularly shaped tumors. The cumulative tumor fluorescence signal was measured by signal summation of all pixels over 75. […]
compound,measurement,setting,value
N.N.[Cl][Pt][Cl] [cisplatin],Mean extension in survival vs untreated controls,[1],30 days
CC(=O)O[C@@]12CO[C@@H]1C[C@H](O)[C@@]1(C)C(=O)[C@H](O)C3=C(C)[C@@H](OC(=O)[C@H](O)[C@@H](NC(=O)OC(C)(C)C)c4ccccc4)C[C@@](O)([C@@H](OC(=O)c4ccccc4)[C@H]21)C3(C)C [docetaxel],Tumor response,[2]; unconjugated drug 5 mg/kg,produced less benefit
"COc1cccc2c1C(=O)c1c(O)c3c(c(O)c1C2=O)C[C@@](O)(C(=O)CO)C[C@@H]3O[C@H]1C[C@H](N)[C@H](O)[C@H](C)O1 [free doxorubicin, doxorubicin]",Tumor response (IVM),[2]; free drug 1 mg/kg,no effect
same,Tumor response (IVM),[2]; free drug 5 mg/kg (near MTD),slowed tumor growth modestly
